“Also recorded” adds a separate entry of the source.

This note sets out measurements from patent publication KR20140041632A, “제주조릿대 잎 추출물 또는 그로부터 분리된 파라-쿠마르산을 이용한 비만 및 지방간 개선제 조성물” (제주대학교 산학협력단, priority 2014, dated 2014).

Assay [1] deals with 3T3-L1 preadipocytes [3T3-L1 전구지방세포]. The assay is described as follows: Inhibition of differentiation of 3T3-L1 preadipocytes into adipocytes (Oil Red O). The format is cell-based. The following applies: 3T3-L1, 100uM, treatment Day4 ~ Day8, Oil Red O 540nm; Fig. 11.
Another assay concerns LKB1. The assay is described as follows: Western blot of p-LKB1 in differentiated 3T3-L1 adipocytes. The format is cell-based. The note with it: Fig. 12. A general note: Immunoblotting shows a protein as a band on a membrane.
Assay [2] concerns AMPK. The assay is described as follows: Western blot of p-AMPK in differentiated 3T3-L1 adipocytes. The format is cell-based. The following applies: Fig. 12.
Assay [3] has as its system ACC. The assay is described as follows: Western blot of p-ACC in differentiated 3T3-L1 adipocytes. The class given is cell-based. The note with it: Fig. 12.
The test system of assay [4] is AMPK. The assay is described as follows: Western blot of p-AMPK in differentiated L6 cells. The format is cell-based, rat. The following applies: 48 h, Fig. 13.
Assay [5] deals with ACC. The assay is described as follows: Western blot of p-ACC in differentiated L6 cells. The note with it: 48 h, Fig. 13. The class given is cell-based, rat.
The next assay deals with PPARα. The assay is described as follows: Western blot of PPARα in differentiated L6 cells. The class given is cell-based, rat. The note with it: 48 h, vs control, Fig. 14.
Assay [6] relates to AMPK. The assay is described as follows: Western blot of p-AMPK in HepG2 cells with induced fat accumulation. The class given is cell-based. The note with it: HepG2, oleic acid 600uM, 24 h; Fig. 15.
For assay [7], the system named is ACC. The assay is described as follows: Western blot of p-ACC in HepG2 cells with induced fat accumulation. The class given is cell-based. The note with it: HepG2, oleic acid 600uM, 24 h; Fig. 15.
Where [8] appears, read: several concentrations, vs control.

In the case of `O=C(O)/C=C/c1ccc(O)cc1` [p-쿠마르산, p-coumaric acid], the “TG content / triglyceride accumulation” value in assay [1] is reported as “유의적으로 감소; also recorded: 중성지방의 축적을 억제”. Besides, in the assay with LKB1, the LKB1 phosphorylation result is “증가 and 농도 의존적으로 LKB1의 인산화, AMPK의 인산화 및 ACC의 인산화를 증가시킴”. Further, the AMPK phosphorylation entry in the assay with AMPK [2] is “증가 and 농도 의존적으로 LKB1의 인산화, AMPK의 인산화 및 ACC의 인산화를 증가시킴”; with AMPK [4] (setting [8]), “농도의존적으로 증가; also recorded: 농도 의존적으로 AMPK 및 ACC의 인산화를 증가시킴”; with AMPK [6], “농도의존적으로 증가; also recorded: 농도 의존적으로 AMPK 및 ACC의 인산화를 증가시킴”. Moreover, the ACC phosphorylation result in the assay with ACC [3] is “증가 and 농도 의존적으로 LKB1의 인산화, AMPK의 인산화 및 ACC의 인산화를 증가시킴”; in the assay on ACC [5] (setting [8]), “농도의존적으로 증가; also recorded: 농도 의존적으로 AMPK 및 ACC의 인산화를 증가시킴”; in the assay on ACC [7], “농도의존적으로 증가; also recorded: 농도 의존적으로 AMPK 및 ACC의 인산화를 증가시킴”. Besides, the “AMPK phosphorylation at highest concentration” value with AMPK [4] (50uM) was “현저한 증가”. In addition, in the assay with ACC [5] (50uM), the “ACC phosphorylation at highest concentration” value is listed as “현저한 증가”. The PPARα expression entry in the assay on PPARα was “증가 and 농도 의존적으로 PPARα 발현을 증가시킴”.
